# Measurements from patent US9040523B2, “Antifungal 5,6-dihydro-4H-pyrrolo[1,2-α][1,4]-benzodiazepines and 6H-pyrrolo[1,2-α][1,4]benzodiazepines substituted with benzene derivatives” (JANSSEN PHARMACEUTICA NV, priority 2010, dated 2015).
# Key:
# Cytochrome P450 2D6 = Cytochrome P450 2D6 (Homo sapiens, UniProt P10635); assay: Human liver microsomal cytochrome P450 cocktail inhibition assay, Protocol C; details: 2D6_Dextro pIC50, human liver microsomes 0.2 mg/ml; probe dextromethorphan 3 microM
# Description: (§1) Probe substrates and final assay concentrations with the appropriate internal standard are outlined in Table 6a.
# (§2) Assays were performed in 0.1 M phosphate buffer (pH 7.4), containing 0.2 mg/ml human liver microsomes (BD Gentest) and a probe substrate mix consisting of: phenacetin, tolbutamide, S-mephenyloin, dextromethorphan, amodiaquine and midazolam (Table 6a) and a range of test compound concentrations (0 to 30 micromolar) in a total volume of 100 microliters. After a 10 min pre-incubation at 37° C., the reaction was started with addition of NADPH at a final concentration of 1.0 mM. […] The samples are centrifuged for 10 min at 4° C. at 4000 rpm and 60 microliters supernatant is diluted with 180 microliters water. Each sample is injected onto a UPLC/MS system for the simultaneous measurement of the probe substrate metabolites and their associated deuterated internal standards. Percentage inhibition is calculated according to: %-inhibition=(1−Ri/R)*100, whereby Ri and R are the metabolite to internal standard peak area ratios in the presence and absence of inhibitor respectively.
# (§3) Percentage inhibition data are plotted against the Log transformed test compound concentration and after curve fitting the IC50-value is determined.
# Cytochrome P450 2C19 = Cytochrome P450 2C19 (Homo sapiens, UniProt P33261); assay: as above; details: 2C19_S-Meph pIC50, human liver microsomes 0.2 mg/ml; probe S-mephenytoin 30 microM
# Description: as §1, §2, §3
# Cytochrome P450 2C9 = Cytochrome P450 2C9 (Homo sapiens, UniProt P11712); assay: as above; details: 2C9 Tolbut pIC50, human liver microsomes 0.2 mg/ml; probe tolbutamide 100 microM
# Description: as §1, §2, §3
# Cytochrome P450 1A2 = molecular target: T1, Cytochrome P450 1A2 (Homo sapiens, UniProt P05177); assay: as above
# T1 sequence (P05177 1-516): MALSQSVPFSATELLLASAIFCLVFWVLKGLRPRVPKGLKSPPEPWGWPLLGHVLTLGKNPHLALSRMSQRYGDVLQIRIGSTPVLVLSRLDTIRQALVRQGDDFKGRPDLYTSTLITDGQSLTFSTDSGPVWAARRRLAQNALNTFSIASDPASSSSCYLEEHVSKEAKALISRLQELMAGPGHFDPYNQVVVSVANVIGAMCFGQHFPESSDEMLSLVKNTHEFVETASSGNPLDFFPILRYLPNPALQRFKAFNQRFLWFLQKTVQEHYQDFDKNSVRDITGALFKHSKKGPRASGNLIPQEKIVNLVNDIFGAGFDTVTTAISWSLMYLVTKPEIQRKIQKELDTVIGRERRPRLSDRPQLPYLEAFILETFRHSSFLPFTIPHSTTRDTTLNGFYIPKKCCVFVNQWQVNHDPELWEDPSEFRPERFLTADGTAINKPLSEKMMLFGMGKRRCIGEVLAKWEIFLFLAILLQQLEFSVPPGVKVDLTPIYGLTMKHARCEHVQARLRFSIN
# Description: as §1, §2, §3
# CYP3A4 = CYP3A4 (Homo sapiens, UniProt P08684); assay: Cytochrome P450 inhibition, Protocol A, cDNA expressed proteins, fluorogenic substrates; format: in vitro ADME
# Description: (§4) All fluorogenic based assays were performed in Black Costar 96-well plates according to Crespi et al 1997 with minor modifications (Crespi C L, Miller V P & Penman B W (1997). Microtiter plate assays for inhibition of human, drug-metabolizing cytochromes P450. Anal. Biochem. Vol 248, 1898-1900). Assay conditions are outlined in Table 5a. For cytochrome P450 3A4, three different fluorogenic substrates were used. Each reaction mixture consisted of the appropriate concentration of enzyme, NADPH-generating system (“NADPH” means β-nicotinamide adenine dinucleotide phosphate, reduced), substrate in sodium/potassium buffer (pH 7.4). For each cytochrome P450 batch Michealis-Menten kinetics were determined using 11 concentrations.
# (§5) Thereafter, further dilutions were made in acetonitrile. […] The compounds were serially diluted to give final concentrations ranging from 1 nM to 10 μM. The reaction mixtures, whereby 1 μL of buffer was replaced by compound solution, were pre-warmed for 5 min at 37° C. and the reaction was initiated by the addition of β-nicotinamide adenine dinucleotide phosphate (NADP+). Reactions were terminated by addition of stopping reagent and the fluorescence was measured using a Fluoroscan (Labsystems, Brussel, Belgium).
# (§6) In Table 5a, the following abbreviations were used: 3-cyano-7-ethocycoumarin (CEC), 7-methoxy-4-trifluoromethylcoumarin (MFC), 3-[2-(N,N-diethyl-N-methylamino)ethyl]-7-methoxy-4-methylcoumarin (AMMC), 7-benzyloxy-trifluoromethyl coumarin (BFC), 7-benzyloxyquinoline (BQ) and dibenzyl fluorescein (DBF).
# [1] = test system: Aspergillus fumigatus B42928; assay: Antifungal activity in vitro (resazurin susceptibility screen), Inf. E; format: cell-based; details: Aspergillus fumigatus B42928; 27 °C, 48 hours, resa time 17 hours; read-out: Inf. E pIC50 (converted)
# Description: (§7) The standard susceptibility screen was performed in 96-well plates (U-bottom, Greiner Bio-One). […] These serial dilutions (10 n1) were then spotted onto test-plates that could be stored in the dark at 4° C. for a maximum period of 2 weeks. […] The different fungal species/isolates (Table 3a) were cryopreserved and 1/1000 diluted in medium just prior to use. A standard inoculum of 200 μl containing 10^3 colony-forming unit (cfu) was then added to each well. A positive control (100% growth=fungal culture without antifungal) and a negative control (0% growth ═RPMI-MOPS medium) were included on each plate. […] [table]
# CYP2C9 = CYP2C9 (Homo sapiens, UniProt P11712); assay: Cytochrome P450 inhibition, Protocol A, cDNA expressed proteins, fluorogenic substrate; format: in vitro ADME
# Description: as §4, §5, §6
# CYP1A2 = molecular target: T2, CYP1A2 (Homo sapiens, UniProt P05177); assay: as above; format: in vitro ADME
# T2 sequence (P05177 1-516): T1 sequence (P05177 1-516)
# Description: as §4, §5, §6
# CYP2D6 = CYP2D6 (Homo sapiens, UniProt P10635); assay: as above; format: in vitro ADME
# Description: as §4, §5, §6
# [2] = test system: Sporothrix schenkii B62482; assay: Antifungal activity in vitro (resazurin susceptibility screen), Inf. A; format: cell-based; details: Sporothrix, B62482, Sporothrix schenkii B62482; 27 °C, 4 days, resa time 24 hours; highest in-test concentration 64 μM; read-out: Inf. A pIC50 (converted)
# Description: as §7
# [3] = Liver metabolic stability assay, hLM; format: in vitro ADME, human
# Description: (§8) Liver preparations (microsomal fractions) were obtained from BD Gentest (San Jose, Calif., US). Metabolic stability was assessed using the following assay conditions. […] The mixture was pre-incubated at 37° C. for 5 min and the enzymatic reaction was started by addition of 5 μM test compound. After 0 (control) and 15 minutes (min), the reactions were terminated by addition of […] (500 μl). The precipitated material was removed by centrifugation at 1200 g for 10 min. The supernatant was analysed by LC-MS/MS on a ThermoFinnigan LCQ Deca XP ion-trap mass spectrometer equipped with an atmospheric pressure chemical ionisation source. Calculation of %-compound remaining was as described by Kantharaj et al. 2003 ((Kantharaj E., Tuytelaars A, Proost P E A, Ongel Z, van […] (2003). Simultaneous measurement of drug metabolic stability and identification of metabolites using ion-trap mass spectrometry.
# [4] = test system: Trichophyton mentagrophytes B70554; assay: Antifungal activity in vitro (resazurin susceptibility screen), Inf. G; format: cell-based; details: Trichophyton mentagrophytes, B70554, Trichophyton mentagrophytes B70554; 27 °C, 7 days, resa time 24 hours; read-out: Inf. G pIC50 (converted)
# Description: (§9) The standard susceptibility screen was performed in 96-well plates (U-bottom, Greiner Bio-One). […] These serial dilutions (10 n1) were then spotted onto test-plates that could be stored in the dark at 4° C. for a maximum period of 2 weeks. […] A standard inoculum of 200 μl containing 10^3 colony-forming unit (cfu) was then added to each well. A positive control (100% growth=fungal culture without antifungal) and a negative control (0% growth ═RPMI-MOPS medium) were included on each plate.
# [5] = Liver metabolic stability assay, gpLM; format: in vitro ADME, guinea pig
# Description: as §8
# Microsporum canis B68128 = assay: Antifungal activity in vitro (resazurin susceptibility screen), Inf. B; format: cell-based; details: Microsporum canis, B68128, Microsporum canis B68128; 27 °C, 9 days, resa time 24 hours; read-out: Inf. B pIC50 (converted)
# Description: as §9
# [6] = test system: Cryptococcus neoformans B66663; assay: Antifungal activity in vitro (resazurin susceptibility screen), Inf. F; format: cell-based; details: Cryptococcus neoformans, B66663, Cryptococcus neoformans B66663; 37 °C, 24 hours, resa time 4 hours; read-out: Inf. F pIC50 (converted)
# Description: as §7
# [7] = test system: Candida parapsilosis B66126; assay: Antifungal activity in vitro (resazurin susceptibility screen), Inf. D; format: cell-based; details: Lodderomyces parapsilosis; Candida parapsilosis B66126; 37 °C, 24 hours, resa time 4 hours; read-out: Inf. D pIC50 (converted)
# Description: as §9
# [8] = test system: Trichophyton rubrum B68183; assay: Antifungal activity in vitro (resazurin susceptibility screen), Inf. C; format: cell-based; details: Trichophyton rubrum B68183; 27 °C, 7 days, resa time 24 hours; read-out: Inf. C pIC50 (converted)
# Description: as §7
# [9] = % inhibition at 10 μM, substrate BFC, cDNA expressed protein
# [10] = % inhibition at 10 μM, substrate BQ, cDNA expressed protein
# [11] = % inhibition at 10 μM, substrate DBF, cDNA expressed protein
# [12] = % inhibition at 10 μM, substrate MFC, cDNA expressed protein
# [13] = % inhibition at 10 μM, substrate CEC, cDNA expressed protein
# [14] = % inhibition at 10 μM, substrate AMMC, cDNA expressed protein
# [15] = human liver microsomes, 1 mg protein/ml, 5 μM test compound, 15 min, 37 °C
# Chain of CYP3A4 (P08684 whole entry): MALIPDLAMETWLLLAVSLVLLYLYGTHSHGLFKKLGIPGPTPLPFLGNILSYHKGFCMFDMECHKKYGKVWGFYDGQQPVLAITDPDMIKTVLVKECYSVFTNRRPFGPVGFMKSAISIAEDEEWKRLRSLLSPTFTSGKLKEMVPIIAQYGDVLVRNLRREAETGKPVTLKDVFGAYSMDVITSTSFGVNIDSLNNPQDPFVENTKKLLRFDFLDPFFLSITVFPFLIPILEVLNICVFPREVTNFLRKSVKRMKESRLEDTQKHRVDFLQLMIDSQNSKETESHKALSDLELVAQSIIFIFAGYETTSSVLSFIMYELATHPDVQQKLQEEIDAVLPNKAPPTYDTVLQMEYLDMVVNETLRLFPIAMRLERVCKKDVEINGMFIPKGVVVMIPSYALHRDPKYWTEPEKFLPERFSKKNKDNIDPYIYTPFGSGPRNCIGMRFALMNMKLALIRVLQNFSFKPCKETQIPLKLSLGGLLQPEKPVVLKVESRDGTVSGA
# Chain of CYP2D6 (P10635 whole entry): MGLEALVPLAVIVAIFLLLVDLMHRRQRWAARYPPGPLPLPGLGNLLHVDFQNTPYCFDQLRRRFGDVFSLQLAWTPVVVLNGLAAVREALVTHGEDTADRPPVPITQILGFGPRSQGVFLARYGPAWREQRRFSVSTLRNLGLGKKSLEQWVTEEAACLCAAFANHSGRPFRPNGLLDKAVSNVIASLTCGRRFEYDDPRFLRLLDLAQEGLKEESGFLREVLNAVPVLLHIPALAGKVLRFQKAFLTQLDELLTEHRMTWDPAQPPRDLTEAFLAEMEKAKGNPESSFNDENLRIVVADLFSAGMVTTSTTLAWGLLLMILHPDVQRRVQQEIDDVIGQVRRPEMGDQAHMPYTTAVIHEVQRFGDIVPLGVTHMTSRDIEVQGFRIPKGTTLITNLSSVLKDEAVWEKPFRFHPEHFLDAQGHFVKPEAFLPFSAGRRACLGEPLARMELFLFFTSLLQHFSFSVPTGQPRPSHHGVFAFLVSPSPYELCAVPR
# Chain of CYP2C9 (P11712 whole entry): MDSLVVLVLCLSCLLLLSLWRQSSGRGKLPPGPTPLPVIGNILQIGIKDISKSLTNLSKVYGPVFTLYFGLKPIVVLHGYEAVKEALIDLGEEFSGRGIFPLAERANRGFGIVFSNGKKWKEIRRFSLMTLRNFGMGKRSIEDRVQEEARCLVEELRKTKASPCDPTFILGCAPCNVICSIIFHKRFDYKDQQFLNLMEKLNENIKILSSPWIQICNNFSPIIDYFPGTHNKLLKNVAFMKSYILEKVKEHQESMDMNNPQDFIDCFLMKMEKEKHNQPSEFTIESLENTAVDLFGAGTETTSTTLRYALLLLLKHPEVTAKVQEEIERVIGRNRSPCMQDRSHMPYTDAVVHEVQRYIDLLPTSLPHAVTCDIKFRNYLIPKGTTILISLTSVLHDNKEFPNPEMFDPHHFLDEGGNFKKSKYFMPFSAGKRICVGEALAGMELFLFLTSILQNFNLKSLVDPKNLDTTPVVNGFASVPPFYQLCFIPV
# Chain of Cytochrome P450 2D6 (P10635 whole entry): as the sequence (P10635 whole entry) above
# Chain of Cytochrome P450 2C9 (P11712 whole entry): as the sequence (P11712 whole entry) above
# Chain of Cytochrome P450 2C19 (P33261 whole entry): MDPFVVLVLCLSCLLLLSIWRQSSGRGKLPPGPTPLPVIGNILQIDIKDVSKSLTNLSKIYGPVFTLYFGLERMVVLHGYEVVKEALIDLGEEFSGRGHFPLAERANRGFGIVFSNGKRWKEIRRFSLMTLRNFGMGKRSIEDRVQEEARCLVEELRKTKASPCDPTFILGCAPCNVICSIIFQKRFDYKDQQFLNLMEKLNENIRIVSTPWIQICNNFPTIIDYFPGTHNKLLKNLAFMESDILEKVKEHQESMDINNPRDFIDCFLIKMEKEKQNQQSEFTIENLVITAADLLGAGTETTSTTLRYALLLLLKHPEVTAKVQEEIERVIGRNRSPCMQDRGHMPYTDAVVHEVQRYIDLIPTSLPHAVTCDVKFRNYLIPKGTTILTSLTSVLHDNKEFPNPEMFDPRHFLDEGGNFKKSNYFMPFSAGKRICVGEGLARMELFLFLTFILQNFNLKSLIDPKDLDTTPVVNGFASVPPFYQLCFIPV
SMILES,IC50 (Cytochrome P450 2D6) [µM],IC50 (Cytochrome P450 2C19) [µM],IC50 (Cytochrome P450 2C9) [µM],IC50 (Cytochrome P450 1A2) [µM],IC50 [1] [µM],IC50 [2] [µM],IC50 [4] [µM],IC50 (Microsporum canis B68128) [µM],IC50 [6] [µM],IC50 [7] [µM],IC50 [8] [µM],hCYP3A4_BFC_Pct_Inh (CYP3A4; [9]) [%],hCYP3A4_BQ_Pct_Inh (CYP3A4; [10]) [%],hCYP3A4_DBF_Pct_Inh (CYP3A4; [11]) [%],hCYP2C9_MFC_Pct_Inh (CYP2C9; [12]) [%],hCYP1A2_CEC_Pct_Inh (CYP1A2; [13]) [%],hCYP2D6_AMMC_Pct_Inh (CYP2D6; [14]) [%],"%-compound metabolised_Met_hLM [3, 15] [%]",also measured
CCc1cccc(C2NCc3c(Cl)cccc3-n3cccc32)c1 (centres unmarked),2,1.26,6.31,> 10,,,,,,,,,,,,,,,
"CC(=O)c1cc(C2NCc3c(Cl)cc(Cl)cc3-n3cccc32)ccc1F (centres unmarked) [Compound 13, 1-[5-(7,9-dichloro-5,6-dihydro-4H-pyrrolo[1,2-a][1,4]benzodiazepin-4-yl)-2-fluorophenyl]-ethanone]",,,,,> 63.1,> 63.1,> 63.1,7.94,> 63.1,> 63.1,2,,,,,,,,"hCYP3A4_BFC_Pct_Inh (CYP3A4; human, 10 μM, pH 7.4): 81%; hCYP3A4_BQ_Pct_Inh (CYP3A4; human, 10 μM, pH 7.4): 78%; hCYP3A4_DBF_Pct_Inh (CYP3A4; human, 10 μM, pH 7.4): 91%; hCYP2C9_MFC_Pct_Inh (CYP2C9; human, 10 μM, pH 7.4): 61%; hCYP1A2_CEC_Pct_Inh (CYP1A2; human, 10 μM, pH 7.4): 64%; hCYP2D6_AMMC_Pct_Inh (CYP2D6; human, 10 μM, pH 7.4): 51%; %-compound metabolised_Met_hLM ([3]; human, microsomes, 0.25 h, 5 μM, pH 7.4): 69%; %-compound metabolised Met_gpLM ([5]; guinea pig, microsomes, 0.25 h, 5 μM, pH 7.4): 95%"
"CC(=O)c1cc(C2=NCc3c(Cl)cc(Cl)cc3-n3cccc32)ccc1F [Compound 23, 1-[5-(7,9-dichloro-6H-pyrrolo[1,2-a][1,4]benzodiazepin-4-yl)-2-fluorophenyl]-ethanone]",,,,,> 63.1,> 63.1,> 63.1,> 63.1,> 63.1,> 63.1,> 63.1,51,56,40,51,17,3,22,"%-compound metabolised Met_gpLM ([5]; guinea pig microsomes, 1 mg protein/ml, 5 μM test compound, 15 min, 37 °C): 39%; melting point: 192.3 to 193.4 °C"
"CC(=O)c1ccc(C2=NCc3c(Cl)ccc(Cl)c3-n3cccc32)cc1 [Compound 25, 1-[4-(7,10-dichloro-6H-pyrrolo[1,2-a][1,4]benzodiazepin-4-yl)phenyl]-ethanone]",,,,,> 63.1,> 63.1,10,3.16,> 63.1,> 63.1,5.01,21,29,21,45,21,11,80,
CC(=O)c1ccc(C2NCc3c(Cl)cccc3-n3cccc32)cc1 (centres unmarked) [drawing 94],3.16,3.16,3.16,> 10,,,,,,,,,,,,,,,
